{
  "source": "ChEMBL document CHEMBL4130359",
  "about": "“Indazole-based ligands for estrogen-related receptor α as potential anti-diabetic agents” (Eur J Med Chem, 2017)",
  "key": {"[1]": {"experiment": "Drug uptake in muscle of Zucker rat sub-chronic fa/fa prediabetic model at 12.5 mg/kg, po qd for 11 days", "assay_type": "ADME, organism-based, Muscle tissue", "details": "read-out: Drug uptake"}, "Rattus norvegicus [2]": {"system": "Rattus norvegicus", "experiment": "Antidiabetic activity in Zucker rat sub-chronic fa/fa prediabetic model assessed as blood glucose AUC (0 to 120 min) at 3 mg/kg, po qd for 31 days measured on day 29 post dose by OGTT (reference value: 41471 +/- 2451 mg.min/dL)", "assay_type": "functional"}, "Rattus norvegicus [3]": {"system": "Rattus norvegicus", "experiment": "Effect on ABCG1 gene expression in epididymal white adipose tissue of Zucker rat sub-chronic fa/fa prediabetic model at 10 mg/kg, po qd for 15 days by microarray analysis relative to control", "assay_type": "functional"}, "Rattus norvegicus [4]": {"system": "Rattus norvegicus", "experiment": "Effect on AGPAT3 gene expression in epididymal white adipose tissue of Zucker rat sub-chronic fa/fa prediabetic model at 10 mg/kg, po qd for 15 days by microarray analysis relative to control", "assay_type": "functional"}, "Rattus norvegicus [5]": {"system": "Rattus norvegicus", "experiment": "Toxicity in […] model assessed as serum BUN level at 50 mg/kg, po qd for 31 days measured on day 32 (reference value: 28.3 +/- […])", "assay_type": "organism-based", "details": "in vivo, 744 h"}, "[6]": {"experiment": "Terminal half life in […] at 15 mg/kg administered via oral gavage by LC-MS analysis", "assay_type": "ADME, organism-based", "details": "in vivo, read-out: beta t1/2 (converted)"}, "Rattus norvegicus [7]": {"system": "Rattus norvegicus", "experiment": "Effect on TXNRD2 gene expression in epididymal white adipose tissue of Zucker rat sub-chronic fa/fa prediabetic model at 10 mg/kg, po qd for 15 days by microarray analysis relative to control", "assay_type": "functional"}, "[8]": {"experiment": "Cmax in CD-1 mouse at 20 mg/kg administered via oral gavage by LC-MS analysis", "assay_type": "ADME, organism-based", "parameters": "dose 20 mg/kg, route oral", "details": "in vivo"}, "Rattus norvegicus [9]": {"system": "Rattus norvegicus", "experiment": "Effect on TNF gene expression in epididymal white adipose tissue of Zucker rat sub-chronic fa/fa prediabetic model at 10 mg/kg, po qd for 15 days by microarray analysis relative to control", "assay_type": "functional"}, "Rattus norvegicus [10]": {"system": "Rattus norvegicus", "experiment": "Effect on NDUFA5 gene expression in epididymal white adipose tissue of Zucker rat sub-chronic fa/fa prediabetic model at 10 mg/kg, po qd for 15 days by microarray analysis relative to control", "assay_type": "functional"}, "Rattus norvegicus [11]": {"system": "Rattus norvegicus", "experiment": "Toxicity in Zucker rat sub-chronic fa/fa prediabetic model assessed as liver weight at 3 mg/kg, po qd for 31 days measured on day 32 (reference value: 28 +/- 1.6 g)", "assay_type": "organism-based", "details": "in vivo, 744 h"}, "[12]": {"experiment": "AUC (0 to 24 hrs) in Sprague-Dawley rat at 10 mg/kg administered via oral gavage by LC-MS analysis", "assay_type": "ADME, organism-based", "parameters": "dose 10 mg/kg, time < 24 hr, route oral", "details": "in vivo"}, "Rattus norvegicus [13]": {"system": "Rattus norvegicus", "experiment": "Toxicity in […] model assessed as serum cholesterol level at 50 mg/kg, po qd for 31 days measured on day 32 (reference value: 195 +/- 5.5 mg/dl)", "assay_type": "organism-based", "details": "in vivo, 744 h"}, "[14]": {"experiment": "AUC (0 to 24 hrs) in […] model at 10 mg/kg, po qd for 28 days measured on day 28 post last dose", "assay_type": "ADME, organism-based", "parameters": "time < 24 hr, dose 10 mg/kg, route oral", "details": "in vivo"}, "[15]": {"experiment": "Oral bioavailability in Sprague-Dawley rat at 10 mg/kg administered via gavage by LC-MS analysis", "assay_type": "ADME, organism-based", "details": "in vivo"}, "Rattus norvegicus [16]": {"system": "Rattus norvegicus", "experiment": "Decrease in fed plasma triglyceride level in Zucker rat sub-chronic fa/fa prediabetic model assessed as change in plasma triglyceride level at 10 mg/kg, po qd for 4 days measured on day 5 relative to control", "assay_type": "functional", "parameters": "scale not given: the % may be the effect or the level left"}, "[17]": {"experiment": "AUC (0 to 24 hrs) in […] model at 3 mg/kg, po qd for 28 days measured on day 28 post last dose", "assay_type": "ADME, organism-based", "parameters": "dose 3 mg/kg, time < 24 hr, route oral", "details": "in vivo"}, "Rattus norvegicus [18]": {"system": "Rattus norvegicus", "experiment": "Effect on IL1RL1 gene expression in epididymal white adipose tissue of Zucker rat sub-chronic fa/fa prediabetic model at 10 mg/kg, po qd for 15 days by microarray analysis relative to control", "assay_type": "functional"}, "Rattus norvegicus [19]": {"system": "Rattus norvegicus", "experiment": "Effect on HSP90B1 gene expression in epididymal white adipose tissue of Zucker rat sub-chronic fa/fa prediabetic model at 10 mg/kg, po qd for 15 days by microarray analysis relative to control", "assay_type": "functional"}, "Rattus norvegicus [20]": {"system": "Rattus norvegicus", "experiment": "Toxicity in […] model assessed as serum ALT level at 50 mg/kg, po qd for 31 days measured on day 32 (reference value: 127 +/- 9 U/L)", "assay_type": "organism-based", "details": "in vivo, 744 h"}},
  "data": [
    {"smiles": "CN1CC[C@@H](N2C(=O)S/C(=C\\c3ccc4c(cnn4Cc4ccc(Cl)cc4C(F)(F)F)c3)C2=O)[C@H](F)C1", "values": [
      {"measurement": "concentration at 264 h", "setting": "[1]", "value": 2820, "unit": "ng/g"},
      {"measurement": "Activity", "setting": "Rattus norvegicus [2]", "value": 26306, "unit": "mg·min/dL"},
      {"measurement": "fold change (FC)", "setting": "Rattus norvegicus [3]", "value": 1.488},
      {"measurement": "fold change (FC)", "setting": "Rattus norvegicus [4]", "value": -1.213},
      {"measurement": "Activity", "setting": "Rattus norvegicus [5]", "value": 29.5, "unit": "mg/dL"},
      {"measurement": "half-life", "setting": "[6]", "value": 6.7, "unit": "h"},
      {"measurement": "fold change (FC)", "setting": "Rattus norvegicus [7]", "value": 1.311},
      {"measurement": "Cmax", "setting": "[8]", "value": 2000, "unit": "ng/mL"},
      {"measurement": "fold change (FC)", "setting": "Rattus norvegicus [9]", "value": -1.24},
      {"measurement": "fold change (FC)", "setting": "Rattus norvegicus [10]", "value": 1.568},
      {"measurement": "Activity", "setting": "Rattus norvegicus [11]", "value": 20.6, "unit": "g"},
      {"measurement": "AUC(0-t) at 24 h", "setting": "[12]", "value": 5410, "unit": "ng·h/mL"},
      {"measurement": "Activity", "setting": "Rattus norvegicus [13]", "value": 145, "unit": "mg/dL"},
      {"measurement": "AUC at 24 h", "setting": "[14]", "value": 5910, "unit": "ng·h/mL"},
      {"measurement": "bioavailability", "setting": "[15]", "value": 84, "unit": "%"},
      {"measurement": "Activity", "setting": "Rattus norvegicus [16]", "value": -68, "unit": "%"},
      {"measurement": "AUC at 24 h", "setting": "[17]", "value": 2150, "unit": "ng·h/mL"},
      {"measurement": "fold change (FC)", "setting": "Rattus norvegicus [18]", "value": -2.752},
      {"measurement": "fold change (FC)", "setting": "Rattus norvegicus [19]", "value": -1.258},
      {"measurement": "Activity", "setting": "Rattus norvegicus [20]", "value": 149, "unit": "U/L"}
    ]}
  ]
}
